Converted amounts (≈) assume the structure as drawn.
Tests used:
[1] = PK study of dose proportionality in rat after oral crystalline Form A; type: in vivo, female Sprague Dawley rats; conditions: oral 10, 30, 100 or 300 mg/kg, suspension in 1% Tween, 40% PEG400, 59% of 0.5% HPMC
Excerpt: A summary of this study is illustrated in FIG. 5.

[2] = Aqueous solubility, kinetic shake flask method; type: physicochemical; conditions: aqueous buffer, kinetic from dmso stock, pH=7.4 in 50 mM phosphate buffer
[3] = PK study of plasma exposure in rat after oral HPMCAS SDD preparations; type: in vivo, female Sprague Dawley rats; conditions: female, Sprague Dawley, 10 mg/kg
Procedure: Spray-dried dispersions (SDD) were prepared by mixing a solution of Compound 1 in (90:10) acetone:water with hydroxypropylmethylcellulose acetate succinate M or H (HPMCAS-M or HPMCAS-H) in ratios of Compound 1:polymer of either 1:9 or 1:3, followed by spray-drying each preparation using a custom bench scale Lab Spray Dryer (BLD-35; process parameters: inlet T° 93-109° C.; outlet T° 42-43° C.; atomizing pressure 110 psi; feed rate 29 g/min; […] 450 g/min).
In order to determine the plasma exposure levels of the three SDDs prepared as described above, each of them was administered orally at 10 mg/kg (based on Compound 1) to female Sprague Dawley rats as a suspension in 0.5% MC for the 10% HPMCAS-M SDD or as a suspension in 0.5% Methocel A4M/0.5% HPMCAS-HF/20 mM Tris, pH 7.4 for the 25% HPMCAS-M and the 25% HPMCAS-H SDDs. FIG. 9 illustrates the results of this experiment.

[4] = PK study of dose proportionality in dog after oral SDD; type: in vivo, male beagle dogs; conditions: 25% Compound 1:HPMC SDD, oral 0.5% MC suspension, 1 mg/kg-10 mg/kg
Procedure: (§1) The spray-dried dispersion was prepared by mixing a solution of Compound 1 in dichloromethane with hydroxypropyl methylcellulose (Methocel E5 LV) (HPMC) in a 1:3 Compound 1:polymer ratio, stirring the mixture overnight, and then spray-drying using a lab scale Buchi spray dryer.

BRD4(BD1) = target: T1, BRD4(BD1) (Homo sapiens, UniProt O60885); experiment: In vitro enzyme inhibition assay (AlphaScreen, BRD4 / H4-tetraacetyl peptide); type: binding; conditions: BRD4(BD1) 2 nM, peptide 15 nM
T1 construct: In a 384-well ProxiPlate BRD4(BD1) (2 nM final) was combined with peptide; made in house
Procedure: His-tagged BRD4 was cloned, expressed, and purified to homogeneity. […] BRD4 binding and inhibition was assessed by monitoring the interaction of biotinylated H4-tetraacetyl peptide (AnaSpec, H4K5/8/12/16(Ac), biotin-labeled) with the target using the AlphaScreen technology ([…]). […] After 20 min incubation at RT, Alpha streptavidin donor beads and Nickel Chelate acceptor beads were added to a final concentration of 5 μg/mL.

[5] = system: NCI-H460, human non-small cell lung cancer cells; experiment: Cell-MTS cellular proliferation assay, NCI-H460; type: cell-based; conditions: 168 hr incubation
Procedure: (§2) A colorimetric cellular proliferation assay (Cell-MTS assay) was performed to assess the ability of the heterocyclic derivative BRD4 inhibitors disclosed herein to effect the proliferation of established cancer cell lines.
(§3) Assay Principle: The Cell-MTS assay is a 7-day plate-based colorimetric assay that quantifies the amount of newly generated NADH in the presence or absence of test compound. The NADH level is used for the quantification of cancer cell proliferation.
(§4) Assay Method: Established cancer cell lines with a variety of driving mutations were obtained from American Type Culture Collection (ATCC) and routinely passaged according to ATCC protocols. For routine assay, these cells were seeded at densities that enabled ˜90% confluence after 7 days of culture. Raji, human Burkitts lymphoma cells, (cMYC) were seeded at 15,000 cells per 96-well. HL-60, human proleukemia cells, (NRAS, p16, p53, c-Myc amplified) were seeded at 5,000 cells per 96-well. NCI-H460, human non-small cell lung cancer cells, (KRAS, PIK3CA, STLK11, p16) were seeded at 3,000 cells per 96-well. Plated cells were incubated for 24 hr, and thereafter cells received an 11-point dilution of Compound 1 with final concentration ranges from 100 μM to 2.0 nM. […] IC50 values were calculated using the IDBS XLfit software package and include background subtracted OD490 values and normalization to DMSO controls. […]

[6] = PK study of plasma exposure in mouse 6 hours after oral SDD preparations; type: in vivo, female CD-1 mice; conditions: female, CD-1, mouse
Procedure: Spray-dried dispersions (SDD) were prepared by mixing a solution of Compound 1 in dichloromethane with either polyvinylpyrrolidone (PVP K12 PF) or hydroxypropyl methylcellulose (Methocel E5 LV) in ratios of Compound 1:polymer of either 1:1 or 1:3, resulting in four unique combinations, followed by spray-drying each preparation using a lab scale Buchi spray dryer (Buchi B290 parameters: inlet T° 80° C.; outlet T° 57° C.; aspirator 100%; nozzle air 30 mm; pump speed 25%; setup: open loop).
In order to determine the plasma exposure levels of the four SDDs prepared as described above, each of preparation was administered orally to female CD-1 mice as a suspension in 0.5% MC. FIG. 6 illustrates the results of this experiment.

[7] = system: HL-60, human proleukemia cells; experiment: Cell-MTS cellular proliferation assay, HL-60; type: cell-based; conditions: 168 hr incubation
Procedure: as §2, §3, §4

[8] = system: Raji, human Burkitts lymphoma cells; experiment: Cell-MTS cellular proliferation assay, Raji; type: cell-based; conditions: 168 hr incubation
Procedure: as §2, §3, §4

[9] = PK study of dose proportionality in rat after oral SDD; type: in vivo, female Sprague Dawley rats; conditions: 25% Compound 1:HPMC SDD, oral 0.5% MC suspension, 10 mg/kg to 300 mg/kg
Procedure: as §1

SMILES	exposure levels (AUC 0-24 hr) versus dose [1]	solubility [2] [µg/mL]	AUC(0-t) ([3]; SDD with HPMCAS-M polymer, Compound 1:polymer 1:9, suspension in 0.5% MC, read-out: mean AUC 0-24 hr) [ng·h/mL]	AUC(0-t) ([3]; pH 7.4, SDD with HPMCAS-H polymer, Compound 1:polymer 1:3, suspension in 0.5% Methocel A4M/0.5% HPMCAS-HF/20 mM Tris, pH 7.4, read-out: mean AUC 0-24 hr) [ng·h/mL]	AUC(0-t) ([3]; pH 7.4, SDD with HPMCAS-M polymer, Compound 1:polymer 1:3, suspension in 0.5% Methocel A4M/0.5% HPMCAS-HF/20 mM Tris, pH 7.4, read-out: mean AUC 0-24 hr) [ng·h/mL]	dose proportionality (AUC 0-24 hr) [4]	IC50 (BRD4(BD1)) [nM]	IC50 [5] [nM]	AUC(0-t) ([6]; SDD with HPMC polymer, Compound 1:polymer 1:1, suspension in 0.5% MC) [ng·h/mL]	AUC(0-t) ([6]; SDD with HPMC polymer, Compound 1:polymer 1:3, suspension in 0.5% MC) [ng·h/mL]	AUC(0-t) ([6]; SDD with PVP polymer, Compound 1:polymer 1:1, suspension in 0.5% MC) [ng·h/mL]	AUC(0-t) ([6]; SDD with PVP polymer, Compound 1:polymer 1:3, suspension in 0.5% MC) [ng·h/mL]	IC50 [7] [nM]	IC50 [8] [nM]	dose proportionality (AUC 0-24 hr) [9]
Cn1cc(-c2cc(S(C)(=O)=O)ccc2OCC2CC2)c2ccccc2c1=O [Compound 1 Form A, 4-[2-(cyclopropylmethoxy)-5-methylsulfonylphenyl]-2-methylisoquinolin-1-one]	non-linear exposure levels	2.6 to 3.7 (≈ 6.78 to 9.65 µM)	–	–	–	–	–	–	–	–	–	–	–	–	–
Cn1cc(-c2cc(S(C)(=O)=O)ccc2OCC2CC2)c2ccccc2c1=O [Compound 1, 4-[2-(cyclopropylmethoxy)-5-methylsulfonylphenyl]-2-methylisoquinolin-1-one]	–	–	28100	27500	24600	Approximate dose proportionality	< 500	> 5000	10500	24400	7190	8870	≤ 500	≤ 500	approximate dose proportionality
